ChEMBL document CHEMBL3044631, “Synthesis of 2-[4,5-dimethyl-1-(phenylamino)-1H-imidazol-2-ylthio]-N-(thiazole-2-yl)acetamide derivatives and their anticancer activities” (2013)

How the values were obtained:
Assay type in all cases: functional
IGROV-1 = assay: Anticancer activity against Homo sapiens (human) IGROV1 cells assessed as cell growth promotion at 10 uM after 48 hr by SRB assay
UACC-62 = assay: Anticancer activity against Homo sapiens (human) UACC62 cells assessed as cell growth promotion at 10 uM after 48 hr by SRB assay
T47D = assay: Anticancer activity against Homo sapiens (human) T47D cells assessed as cell growth promotion at 10 uM after 48 hr by SRB assay
Hs-578T = assay: Anticancer activity against Homo sapiens (human) Hs 578T cells assessed as cell growth promotion at 10 uM after 48 hr by SRB assay
MDA-MB-231 = assay: Anticancer activity against Homo sapiens (human) MDA-MB-231/ATCC cells assessed as cell growth promotion at 10 uM after 48 hr by SRB assay
MCF7 = assay: Anticancer activity against Homo sapiens (human) MCF7 cells assessed as cell growth promotion at 10 uM after 48 hr by SRB assay
DU-145 = assay: Anticancer activity against Homo sapiens (human) DU145 cells assessed as cell growth promotion at 10 uM after 48 hr by SRB assay
TK-10 = assay: Anticancer activity against Homo sapiens (human) TK10 cells assessed as cell growth promotion at 10 uM after 48 hr by SRB assay
SN12C = assay: Anticancer activity against Homo sapiens (human) SN12C cells assessed as cell growth promotion at 10 uM after 48 hr by SRB assay
CAKI-1 = assay: Anticancer activity against Homo sapiens (human) CAKI-1 cells assessed as cell growth promotion at 10 uM after 48 hr by SRB assay
ACHN = assay: Anticancer activity against Homo sapiens (human) ACHN cells assessed as cell growth promotion at 10 uM after 48 hr by SRB assay
A498 = assay: Anticancer activity against Homo sapiens (human) A498 cells assessed as cell growth promotion at 10 uM after 48 hr by SRB assay
SK-OV-3 = assay: Anticancer activity against Homo sapiens (human) SKOV3 cells assessed as cell growth promotion at 10 uM after 48 hr by SRB assay
OVCAR-8 = assay: Anticancer activity against Homo sapiens (human) OVCAR8 cells assessed as cell growth promotion at 10 uM after 48 hr by SRB assay
OVCAR-5 = assay: Anticancer activity against Homo sapiens (human) OVCAR5 cells assessed as cell growth promotion at 10 uM after 48 hr by SRB assay
OVCAR-3 = assay: Anticancer activity against Homo sapiens (human) OVCAR3 cells assessed as cell growth promotion at 10 uM after 48 hr by SRB assay
HCT-15 = assay: Anticancer activity against Homo sapiens (human) HCT15 cells assessed as cell growth promotion at 10 uM after 48 hr by SRB assay
HCT-116 = assay: Anticancer activity against Homo sapiens (human) HCT116 cells assessed as cell growth promotion at 10 uM after 48 hr by SRB assay
HCC 2998 = assay: Anticancer activity against Homo sapiens (human) HCC2998 cells assessed as cell growth promotion at 10 uM after 48 hr by SRB assay
NCI-H522 = assay: Anticancer activity against Homo sapiens (human) NCI-H522 cells assessed as cell growth promotion at 10 uM after 48 hr by SRB assay
EKVX = assay: Anticancer activity against Homo sapiens (human) EKVX cells assessed as cell growth promotion at 10 uM after 48 hr by SRB assay
A549 = assay: Anticancer activity against Homo sapiens (human) A549/ATCC cells assessed as cell growth promotion at 10 uM after 48 hr by SRB assay
SR = assay: Anticancer activity against Homo sapiens (human) SR cells assessed as cell growth promotion at 10 uM after 48 hr by SRB assay
RPMI-8226 = assay: Anticancer activity against Homo sapiens (human) RPMI8226 cells assessed as cell growth promotion at 10 uM after 48 hr by SRB assay
MOLT-4 = assay: Anticancer activity against Homo sapiens (human) MOLT4 cells assessed as cell growth promotion at 10 uM after 48 hr by SRB assay
K562 = assay: Anticancer activity against Homo sapiens (human) K562 cells assessed as cell growth promotion at 10 uM after 48 hr by SRB assay
HL-60(TB) = assay: Anticancer activity against Homo sapiens (human) HL-60(TB) cells assessed as cell growth promotion at 10 uM after 48 hr by SRB assay
SK-MEL-2 = assay: Anticancer activity against Homo sapiens (human) SK-MEL-2 cells assessed as cell growth promotion at 10 uM after 48 hr by SRB assay
M14 = assay: Anticancer activity against Homo sapiens (human) M14 cells assessed as cell growth promotion at 10 uM after 48 hr by SRB assay
Malme-3M = assay: Anticancer activity against Homo sapiens (human) MALME-3M cells assessed as cell growth promotion at 10 uM after 48 hr by SRB assay
LOX IMVI = assay: Anticancer activity against Homo sapiens (human) LOXIMVI cells assessed as cell growth promotion at 10 uM after 48 hr by SRB assay
U-251 = assay: Anticancer activity against Homo sapiens (human) U251 cells assessed as cell growth promotion at 10 uM after 48 hr by SRB assay
SNB-75 = assay: Anticancer activity against Homo sapiens (human) SNB75 cells assessed as cell growth promotion at 10 uM after 48 hr by SRB assay
SNB-19 = assay: Anticancer activity against Homo sapiens (human) SNB19 cells assessed as cell growth promotion at 10 uM after 48 hr by SRB assay
SF-295 = assay: Anticancer activity against Homo sapiens (human) SF295 cells assessed as cell growth promotion at 10 uM after 48 hr by SRB assay
SF-539 = assay: Anticancer activity against Homo sapiens (human) SF539 cells assessed as cell growth promotion at 10 uM after 48 hr by SRB assay
SF-268 = assay: Anticancer activity against Homo sapiens (human) SF268 cells assessed as cell growth promotion at 10 uM after 48 hr by SRB assay
SW-620 = assay: Anticancer activity against Homo sapiens (human) SW620 cells assessed as cell growth promotion at 10 uM after 48 hr by SRB assay
HT-29 = assay: Anticancer activity against Homo sapiens (human) HT-29 cells assessed as cell growth promotion at 10 uM after 48 hr by SRB assay
KM12 = assay: Anticancer activity against Homo sapiens (human) KM12 cells assessed as cell growth promotion at 10 uM after 48 hr by SRB assay
NCI-H460 = assay: Anticancer activity against Homo sapiens (human) NCI-H460 cells assessed as cell growth promotion at 10 uM after 48 hr by SRB assay

COc1ccc(Nn2c(SCC(=O)Nc3nccs3)nc(C)c2C)cc1
Activity (IGROV-1): 102.01%
Activity (UACC-62): 95.78%
Activity (T47D): 94.87%
Activity (Hs-578T): 109.7%
Activity (MDA-MB-231): 105.41%
Activity (MCF7): 102.31%
Activity (DU-145): 112.49%
Activity (TK-10): 105.37%
Activity (SN12C): 98.23%
Activity (CAKI-1): 90.35%
Activity (ACHN): 100.51%
Activity (A498): 99.48%
Activity (SK-OV-3): 108.56%
Activity (OVCAR-8): 103.25%
Activity (OVCAR-5): 89.33%
Activity (OVCAR-3): 113.42%
Activity (HCT-15): 100.06%
Activity (HCT-116): 106.93%
Activity (HCC 2998): 110.49%
Activity (NCI-H522): 95.16%
Activity (EKVX): 108.98%
Activity (A549): 104.98%
Activity (SR): 104%
Activity (RPMI-8226): 102.22%
Activity (MOLT-4): 100.89%
Activity (K562): 99.68%
Activity (HL-60(TB)): 98.86%
Activity (SK-MEL-2): 92.7%
Activity (M14): 107.71%
Activity (Malme-3M): 119.7%
Activity (LOX IMVI): 105.4%
Activity (U-251): 104.49%
Activity (SNB-75): 100.22%
Activity (SNB-19): 109.69%
Activity (SF-295): 91.49%
Activity (SF-539): 101.05%
Activity (SF-268): 103.59%
Activity (SW-620): 113.7%
Activity (HT-29): 102.36%
Activity (KM12): 96.74%
Activity (NCI-H460): 108.22%

Cc1ccc(Nn2c(SCC(=O)Nc3nc(-c4ccccc4)cs3)nc(C)c2C)cc1
Activity (IGROV-1): 86%
Activity (UACC-62): 51.82%
Activity (T47D): 6.48%
Activity (Hs-578T): 105.97%
Activity (MDA-MB-231): 46%
Activity (MCF7): 24.07%
Activity (DU-145): 83.4%
Activity (TK-10): 72.7%
Activity (SN12C): 64.31%
Activity (CAKI-1): 53.6%
Activity (ACHN): 60.88%
Activity (A498): 92.54%
Activity (SK-OV-3): 69.62%
Activity (OVCAR-8): 55.49%
Activity (OVCAR-5): 81.8%
Activity (OVCAR-3): 78.47%
Activity (HCT-15): 67.18%
Activity (HCT-116): 40.22%
Activity (HCC 2998): 91.96%
Activity (NCI-H522): 49.7%
Activity (EKVX): 49.68%
Activity (A549): 46.29%
Activity (SR): 72.64%
Activity (RPMI-8226): 55.78%
Activity (MOLT-4): 54.72%
Activity (K562): 37.67%
Activity (HL-60(TB)): 63.8%
Activity (SK-MEL-2): 81.38%
Activity (M14): 76.97%
Activity (Malme-3M): 92.03%
Activity (LOX IMVI): 51.93%
Activity (U-251): 49.3%
Activity (SNB-75): 38.33%
Activity (SNB-19): 74.35%
Activity (SF-295): 46.1%
Activity (SF-539): 73.68%
Activity (SF-268): 81.68%
Activity (SW-620): 98.8%
Activity (HT-29): 56.13%
Activity (KM12): 82.85%
Activity (NCI-H460): 78.13%

CCOC(=O)c1csc(NC(=O)CSc2nc(C)c(C)n2Nc2ccc(C)cc2)n1
Activity (IGROV-1): 95.15%
Activity (UACC-62): 62.91%
Activity (T47D): 57.89%
Activity (Hs-578T): 139.32%
Activity (MDA-MB-231): 62.5%
Activity (MCF7): 80.14%
Activity (DU-145): 108.96%
Activity (TK-10): 77.84%
Activity (SN12C): 62.75%
Activity (CAKI-1): 80.52%
Activity (ACHN): 76.52%
Activity (A498): 90.47%
Activity (SK-OV-3): 90.71%
Activity (OVCAR-8): 82.64%
Activity (OVCAR-5): 74.57%
Activity (OVCAR-3): 108.5%
Activity (HCT-15): 98.05%
Activity (HCT-116): 68.84%
Activity (HCC 2998): 96.72%
Activity (NCI-H522): 76.3%
Activity (EKVX): 99.66%
Activity (A549): 82.13%
Activity (SR): 87.01%
Activity (RPMI-8226): 72.05%
Activity (MOLT-4): 92.25%
Activity (K562): 78.51%
Activity (HL-60(TB)): 77.24%
Activity (SK-MEL-2): 93.46%
Activity (M14): 70.97%
Activity (Malme-3M): 110.81%
Activity (LOX IMVI): 77.98%
Activity (U-251): 76.07%
Activity (SNB-75): 83.76%
Activity (SNB-19): 75.4%
Activity (SF-295): 53.71%
Activity (SF-539): 73.62%
Activity (SF-268): 102.22%
Activity (SW-620): 98.75%
Activity (HT-29): 52.44%
Activity (KM12): 108.43%
Activity (NCI-H460): 109.11%
